pEC50: −log10 of the molar value. The source made the active and inactive calls. How the calls were made is not given here.

One assay concerns the target S. cerevisiae vacuolar pH, BCECF fluorescence. As to the kind of experiment: vacuolar alkalinization by V-ATPase blockade – S. cerevisiae, BCECF dye, powder sets 2-3, dose response (AID 651731).
Conditions: not given
As for `O=C(c1cccc(C(F)(F)F)n1)N1CCN(c2nc3ccc(F)cc3s2)CC1`, the negative logarithm of the EC50 (pEC50) (commonly −log10 of the EC50, conventionally taken in molar units) was 4.22.
The same measure, in the same setting: for `O=C(c1cccc(Cl)n1)N1CCN(c2nc3ccc(F)cc3s2)CC1` the value was 4.43; for `O=C(c1cccc(C(F)(F)F)c1)N1CCN(c2nc3ccc(F)cc3s2)CC1`, 4.50.

Target in the next assay: not listed separately
The assay is described as above. As to conditions: S. cerevisiae vacuolar pH, BCECF fluorescence; at 100 µM (top of the series).
Take `Cc1cncc(C(=O)Nc2ccccc2N2CCOCC2)n1`: the “response (vacuolar pH increase)” value is “inactive”.
Still for that read-out and setting: for `COCc1cccc(C(=O)N2CCN(c3nc4ccc(F)cc4s3)CC2)c1` the value was “inactive”.
On to `O=C(Nc1ccccc1N1CCOCC1)c1cc(Cl)ccn1`, for which the “response (vacuolar pH increase)” value is “inactive”.
With `N#Cc1ccnc(C(=O)N2CCN(c3nc4ccc(F)cc4s3)CC2)c1`, the “response (vacuolar pH increase)” value was “inactive”.
Same read-out and setting: with `CC(C)(C)c1ccc(C(=O)Nc2ccccc2N2CCOCC2)o1` the entry was “inactive”; with `NC(=O)c1cccc(C(=O)N2CCN(c3nc4ccc(F)cc4s3)CC2)c1`, “inactive”.
Same read-out and setting: for `O=C(Nc1ccccc1N1CCOCC1)c1ccc(C(F)(F)F)o1` the value was “inactive”; for `CN(C)C(=O)c1cccc(C(=O)N2CCN(c3nc4ccc(F)cc4s3)CC2)c1`, “inactive”; for `O=C(Nc1ccccc1N1CCOCC1)c1ccc(-c2ccccc2)o1`, “inactive”.
On the same count and under the same terms, for `O=C(Nc1ccccc1N1CCOCC1)c1cccc(C(F)(F)F)c1` the value was “inactive”; for `O=C(c1ccc(Br)o1)N1CCN(c2nc3ccc(F)cc3s2)CC1`, “inactive”.
`O=C(c1ccc(C(F)(F)F)o1)N1CCN(c2nc3ccc(F)cc3s2)CC1`: the “response (vacuolar pH increase)” value was “inactive”.
Same read-out and setting: with `N#Cc1cccc(C(=O)Nc2ccccc2N2CCOCC2)c1` the entry was “inactive”; with `Cc1cncc(C(=O)N2CCN(c3nc4ccc(F)cc4s3)CC2)n1`, “inactive”; with `O=C(c1ccc(-c2ccccc2)o1)N1CCN(c2nc3ccc(F)cc3s2)CC1`, “inactive”.
On the same count and under the same terms, for `CS(=O)(=O)c1cccc(C(=O)Nc2ccccc2N2CCOCC2)c1` the value was “inactive”; for `CN(C)Cc1cccc(C(=O)Nc2ccccc2N2CCOCC2)c1`, “inactive”; for `O=C(Nc1ccccc1N1CCOCC1)c1cncc(Cl)n1`, “inactive”.
The same measure, in the same setting: with `CN(C)S(=O)(=O)c1cccc(C(=O)N2CCN(c3nc4ccc(F)cc4s3)CC2)c1` the entry was “inactive”; with `O=C(c1cc(Cl)ccn1)N1CCN(c2nc3ccc(F)cc3s2)CC1`, “inactive”; with `NC(=O)c1cccc(C(=O)Nc2ccccc2N2CCOCC2)c1`, “inactive”.
As for `CS(=O)(=O)c1ccc(C(=O)Nc2ccccc2N2CCOCC2)o1`, the “response (vacuolar pH increase)” value is “inactive”.
Same read-out and setting: with `Nc1cncc(C(=O)N2CCN(c3nc4ccc(F)cc4s3)CC2)n1` the entry was “inactive”; with `COCc1cccc(C(=O)Nc2ccccc2N2CCOCC2)c1`, “inactive”; with `CN(C)C(=O)c1cccc(C(=O)Nc2ccccc2N2CCOCC2)c1`, “inactive”.
With `Cc1ccc(C(=O)N2CCN(c3nc4ccc(F)cc4s3)CC2)o1`, the “response (vacuolar pH increase)” value was “inactive”.
On the same count and under the same terms, for `N#Cc1ccnc(C(=O)Nc2ccccc2N2CCOCC2)c1` the value was “inactive”; for `Nc1cncc(C(=O)Nc2ccccc2N2CCOCC2)n1`, “inactive”; for `O=C(Nc1ccccc1N1CCOCC1)c1ccc(Br)o1`, “inactive”.
The same measure, in the same setting: for `O=C(Nc1ccccc1N1CCOCC1)c1cc(C(F)(F)F)ccn1` the value was “inactive”.
Same read-out and setting: with `NC(=O)c1ccc(C(=O)N2CCN(c3nc4ccc(F)cc4s3)CC2)o1` the entry was “inactive”; with `CN(C)Cc1cccc(C(=O)N2CCN(c3nc4ccc(F)cc4s3)CC2)c1`, “inactive”.
As for `Cc1ccnc(C(=O)N2CCN(c3nc4ccc(F)cc4s3)CC2)c1`, the “response (vacuolar pH increase)” value is “inactive”.
In the case of `N#Cc1cccc(C(=O)N2CCN(c3nc4ccc(F)cc4s3)CC2)c1`, the “response (vacuolar pH increase)” value was “inactive”.
In the case of `COCc1ccc(C(=O)Nc2ccccc2N2CCOCC2)o1`, the “response (vacuolar pH increase)” value is “inactive”.
The same measure, in the same setting: with `O=C(c1cc(CO)ccn1)N1CCN(c2nc3ccc(F)cc3s2)CC1` the entry was “inactive”; with `CN(C)Cc1ccc(C(=O)Nc2ccccc2N2CCOCC2)o1`, “inactive”; with `Cc1ccc(C(=O)Nc2ccccc2N2CCOCC2)o1`, “inactive”.
On the same count and under the same terms, for `O=C(Nc1ccccc1N1CCOCC1)c1cccc(Cl)n1` the value was “inactive”; for `CS(=O)(=O)c1ccc(C(=O)N2CCN(c3nc4ccc(F)cc4s3)CC2)o1`, “inactive”.
`O=C(Nc1ccccc1N1CCOCC1)c1cccc(Br)n1`: the “response (vacuolar pH increase)” value was “inactive”.
On the same count and under the same terms, for `NS(=O)(=O)c1cccc(C(=O)Nc2ccccc2N2CCOCC2)c1` the value was “inactive”.
With `O=C(c1cc(C(F)(F)F)ccn1)N1CCN(c2nc3ccc(F)cc3s2)CC1`, the “response (vacuolar pH increase)” value was “inactive”.
Same read-out and setting: with `CC(C)(C)c1ccc(C(=O)N2CCN(c3nc4ccc(F)cc4s3)CC2)o1` the entry was “inactive”; with `Nc1ncc(C(=O)N2CCN(c3nc4ccc(F)cc4s3)CC2)o1`, “inactive”.
With `CN(C)S(=O)(=O)c1cccc(C(=O)Nc2ccccc2N2CCOCC2)c1`, the “response (vacuolar pH increase)” value was “inactive”.
For the compound `NS(=O)(=O)c1cccc(C(=O)N2CCN(c3nc4ccc(F)cc4s3)CC2)c1`, the “response (vacuolar pH increase)” value is “inactive”.
Still for that read-out and setting: for `Nc1ncc(C(=O)Nc2ccccc2N2CCOCC2)o1` the value was “inactive”.
Still for that read-out and setting: for `NS(=O)(=O)c1ccc(C(=O)N2CCN(c3nc4ccc(F)cc4s3)CC2)o1` the value was “inactive”.
Consider `CS(=O)(=O)Cc1cccc(C(=O)N2CCN(c3nc4ccc(F)cc4s3)CC2)c1`, for which the “response (vacuolar pH increase)” value is “inactive”.
As to `O=C(c1cncc(Cl)n1)N1CCN(c2nc3ccc(F)cc3s2)CC1`, the “response (vacuolar pH increase)” value was “inactive”.
For `Cc1ccnc(C(=O)Nc2ccccc2N2CCOCC2)c1`, the “response (vacuolar pH increase)” value was “inactive”.
On the same count and under the same terms, for `O=C(c1cccc(Br)n1)N1CCN(c2nc3ccc(F)cc3s2)CC1` the value was “inactive”; for `Cc1cccc(C(=O)Nc2ccccc2N2CCOCC2)n1`, “inactive”.
Consider `COCc1ccc(C(=O)N2CCN(c3nc4ccc(F)cc4s3)CC2)o1`, for which the “response (vacuolar pH increase)” value is “inactive”.
On the same count and under the same terms, for `CN(C)Cc1ccc(C(=O)N2CCN(c3nc4ccc(F)cc4s3)CC2)o1` the value was “inactive”; for `Cc1cccc(C(=O)N2CCN(c3nc4ccc(F)cc4s3)CC2)n1`, “inactive”; for `O=C(Nc1ccccc1N1CCOCC1)c1cccc(C(F)(F)F)n1`, “inactive”.

The record behind these values is PubChem BioAssay AID651731 (NMMLSC, 2012).
